In the METLIN SMRT retention time set (Domingo-Almenara et al. 2019):

Assay: gradient 5% acetonitrile 3 min, to 50% in 2 min, to 85% in 15 min, held 3 min, 100 µL/min
Settings: column: Zorbax Extend-C18 2.1 x 50 mm; eluents: water / acetonitrile, 0.1% formic acid
How it was run: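 Over 3 months, pure standards in mixtures of ~100 molecules were run by HPLC coupled to a quadrupole time-of-flight mass spectrometer in positive and negative ionization mode. The column was a Zorbax Extend-C18 (2.1 × 50 mm, 1.8 μm) at 100 μL/min, eluted with water and acetonitrile each holding 0.1% formic acid, with 40 μL dead and 900 μL dwell volumes. Retention time was determined from adduct peaks chosen by software and checked manually.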

SMILES	RP-LC retention time [s]
Cc1cccc(-c2noc(-c3sccc3NC(=O)c3ccc4nc[nH]c4c3)n2)c1	957
CN(C)c1ccc(NS(=O)(=O)c2c(F)c(F)c(F)c(F)c2F)cc1	869
COc1cc(Nc2c(C(=O)N3CCCC3)cnc3nc(C)ccc23)cc(OC)c1OC	592
O=c1ccc(N2CCCC(NS(=O)(=O)Cc3ccccc3)C2)n[nH]1 (stereo not drawn)	654
CCCn1nnc(NCc2ccc(-c3ccc(Br)cc3Cl)o2)n1	1230
Cc1ccc(NC(=O)Cn2c(-c3cnccn3)nc(C)c(C)c2=O)cc1F	793
CCOC(=O)C1CCN(CC(O)COc2cc(C)cc(C)c2C)CC1 (stereo not drawn)	597
COc1cccc(CNS(=O)(=O)c2ccc3c(c2)CCCC(=O)N3)c1	714
COc1ccc(NC(=O)Cn2c(=O)c3cc(C4CC4)nn3c3ncccc32)c(OC)c1	772
CC(=O)Nc1nsc(N2CCC(C(=O)N3CCN(c4ccccc4F)CC3)CC2)n1	695
Cc1nn(-c2nc(CC(=O)N3CCCCC3)cs2)c(C)c1Cl	1050
COc1ccc2[nH]c(=O)c(CCC(=O)NCc3nc4ccccc4n3C)cc2c1	577
CCC(C)NC(=O)N1c2cccnc2N(C(C)C)C(=O)C1C (stereo not drawn)	850
COc1ccc2c(c1)C1(CCN(S(=O)(=O)c3ccc(F)c(C)c3)C1)C(=O)N2 (stereo not drawn)	874
O=c1n(Cc2ccccc2Cl)nc2ccc(S(=O)(=O)N3CCOCC3)cn12	824
COc1ccccc1N1CCN(Cc2nc3nc(C)cc(N(C)C)n3n2)CC1	606
Cc1cc(C)c(NC(=O)C2CCN(c3c(C(=O)N4CCCCC4)cnc4snc(C)c34)CC2)c(C)c1	927
O=C([C@@H]1C[C@H](F)CN1S(=O)(=O)c1cccs1)N1CCc2ccccc2C1	830
O=c1ccc(-c2nc(-c3ccc(F)cc3)no2)nn1Cc1ccccc1F	1070
CC(=O)N(Cc1nn(C)c2c1CN(S(=O)(=O)Cc1ccccc1Cl)CC2)c1ccccc1	835
C=CCn1c(C)c(CC(=O)NCCCC)c(=O)n2nc(-c3ccccc3)nc12	818
O=C(c1ccc2ncnc(N3CCCC3)c2c1)N1CCN(c2ccccc2)CC1	646

SMILES	RP-LC retention time [s]
CCOC(=O)c1cc([N+](=O)[O-])sc1NC(=O)c1ccc(Cl)s1	1310
CCNc1nc(N2CCN(C3CCCCC3)CC2)nc2c1cnn2C	614
O=c1nc(NCc2ccccc2)c2ccccc2[nH]1	620
COc1ccc(OC)c(NC(=O)N2CCC3(CC2)N=C(c2ccc(Cl)cc2)C(=O)N3)c1	922
CCOc1cc2c(cc1OCC)C1C(C(=O)N3CCN(CC)CC3)c3ccccc3C(=O)N1CC2 (stereo not drawn)	638
COc1ccccc1NC(=O)Cn1nc2c3sc(N(C)C)nc3ncn2c1=O	690
FC(F)(F)c1ccccc1-n1ccnc1	633
Cc1nc2cc(-c3noc(-c4ccc(Cl)cc4Cl)n3)ccc2o1	1250
O=C(NCCCN1CCCCCC1)C(c1ccccc1)C1CCCCC1 (stereo not drawn)	875
O=C1Nc2cc(C(=O)N3CCN(C(=O)c4ccco4)CC3)ccc2N2CCCCC12 (stereo not drawn)	677
CCOc1ccccc1NC(=O)Cn1cnc2nc(N3CCCC(C(=O)NC(C)C)C3)sc2c1=O (stereo not drawn)	743
Cc1ccc(NC(=O)Cn2nc(C)cc2C(=O)Nc2ccc3c(c2)OCCO3)cc1	834
O=C(NCc1ccc2c(c1)OCO2)C1CCc2nc(N3CCCC3)ncc2C1 (stereo not drawn)	631
CCn1nccc1C(=O)N1CCN(C(=O)N2C[C@H]3C[C@H](C2)[C@H]2CCCC(=O)N2C3)CC1	609
COc1cc(Cl)ccc1C(=O)N1CCC(COc2ccc(C(=O)NC(C)C)cc2)CC1	801
CCc1nc(-n2cccc2)sc1C(=O)Nc1ccc(C)cc1F	1200
O=c1c(NCCc2ccc(Cl)cc2)nc2ccncc2n1Cc1ccccc1	766
Cc1nccn1Cc1nc(-c2ccc(F)c(Cl)c2)no1	654
COc1ccc(-c2nc(Cn3c(C)cc(C)c(-c4nc(-c5ccccc5)no4)c3=O)c(C)o2)cc1	1230
Cc1nc(CCNS(=O)(=O)Cc2cccc(Cl)c2)no1	792
CC(=O)c1sc(NC(=O)c2cc(Cl)ccc2Cl)nc1C	817
COCCn1cc2c3c(cccc31)CN(C(=O)Nc1cc(Cl)c(OC)cc1OC)CC2	993

SMILES	RP-LC retention time [s]
CCc1nnc(-c2cccnc2N2CCN(C(=O)Nc3cc(Cl)cc(Cl)c3)CC2)o1	968
CC(C)(C)NC(=O)N1CCC2(CC1)CC(Cc1nc(-c3cnccn3)no1)CCO2 (stereo not drawn)	720
COC(=O)c1cc(OCC(=O)NCc2ccc3c(c2)OCO3)c2cc(OC)ccc2n1	749
Cc1cnn(Cc2nc(-c3ccc(NC(=O)CC4CCCC4)cc3)oc2C)c1	930
CCN(CC)C(=O)c1ccc2nc(-c3ccc(C)cc3)cn2c1	649
CC(C)C(=O)Nc1ccc2c(c1)N(C(=O)c1cccs1)CCC2	819
COC(=O)c1ccc2c(=O)n(-c3ccccc3)c(N3CCN(c4ccccn4)CC3)nc2c1	684
CCCNC(=O)C1CCCN(c2ccc(SCC(=O)Nc3ccc(C)cc3Cl)nn2)C1 (stereo not drawn)	748
CCOC(=O)c1cc2ccsc2n1CC(=O)Nc1ccc(F)c(F)c1	1020
CNC(=O)[C@H]1O[C@@H](n2cnc3c(NCc4cccc(I)c4)ncnc32)C(O)C1O (stereo partly drawn)	721
Cc1cnc(C2CC2)n1C1CCN(Cc2ccc(F)cc2F)C1 (stereo not drawn)	559
CCCc1noc(-c2ccnc(-n3ncc(C(=O)Nc4ccc(F)cc4)c3C)c2)n1	1120
CCOCN(C(=O)Cn1c(COC)nc2ccccc21)c1c(C)cccc1CC	874
O=C(NC1CCN(c2cc(-c3ccc(F)cc3)[nH]n2)C1)c1ccc(F)c(F)c1 (stereo not drawn)	807
O=C(Nc1ccc2c(c1)OCCO2)N1CCC(n2c(-c3ccco3)nc3cccnc32)C1 (stereo not drawn)	705
Cc1cc(NS(=O)(=O)c2cn(C(C)C)c3ncccc23)ccc1F	948
Cc1cc(N2CCC(NC(=O)Nc3ccc(F)cc3)C2=O)ccc1F (stereo not drawn)	849
COc1cccc(-c2noc(Cn3ccn(-c4c(C)cccc4C)c(=O)c3=O)n2)c1	872
CCN1CCN(CCNC(=O)C(C)C2CCN(C(=O)c3cc4cc(Cl)ccc4[nH]3)CC2)CC1 (stereo not drawn)	630
Cn1ncc2c3ccccc3n(CCCC(=O)NCCCN3CCN(c4ccccc4)CC3)c2c1=O	672
NC(=O)c1oc2ccccc2c1NC(=O)C(=O)NCc1ccc2c(c1)OCO2	758
CCOC(=O)N1CCN(C(=O)CN2C(=O)c3ccccc3S2(=O)=O)CC1	643

SMILES	RP-LC retention time [s]
CCCNC(=O)C1CCN(c2ccc(SCC(=O)Nc3ccc(OC)cc3)nn2)CC1	611
Cc1sc(-c2cc(C(F)(F)F)on2)cc1S(=O)(=O)Nc1ccc(Br)cc1F	1230
O=C(Cn1nc(C(=O)N2CCCC2)c2ccccc21)NCc1ccccc1Cl	824
CC(C)C(=O)NCC12CCCC=C1N(C)C(=O)CC2 (stereo not drawn)	660
O=C(NCc1nc2cccnc2n1Cc1ccc(F)cc1)c1ccc(Br)o1	757
Cc1ccc(C)c(CN2CCn3c(nn(CC4CC4)c3=O)C2)c1	879
CCOc1ccc(CN2C[C@@H](COC)[C@H](c3ccncc3)C2)cc1OC	560
CCNc1cc(N2CCCC(CCC(=O)NC(CC)CC)C2)ncn1 (stereo not drawn)	658
CCN1C(=O)c2cc(C(=O)NCCc3ccccc3)nn2CC1(C)C(=O)NC1CCCC1 (stereo not drawn)	791
c1ccc(N2CCN(Cc3nc(-c4ccc(N5CCOCC5)nc4)no3)CC2)cc1	772
O=S(=O)(Nc1cccn2ncnc12)c1ccccc1Cl	742
CCCNc1nc(N)c2ccccc2n1	573
CCCCCn1c(=O)c2ccccc2n(Cc2nc(-c3ccc(C)c(C)c3)no2)c1=O	795
O=C(NCc1ccccn1)c1ccc(-c2nc3cccnc3n(C3CCCC3)c2=O)cc1	778
CC(CCc1ccco1)NC(=O)c1nnn(-c2ccccc2)c1-c1ccccn1 (stereo not drawn)	862
Cc1ccc(-c2cn3ccn(-c4ccc(F)cc4)c(=O)c3n2)cc1C	901
CCOC(=O)c1nc(N2CCCC(C)C2)c2ccccc2n1 (stereo not drawn)	759
O=P(O)(O)c1cc(-c2ccccc2)oc1-c1ccccc1	852
O=C(Cn1nc2c(c1NC(=O)c1c(F)cccc1Cl)CSC2)NCC1CCCO1 (stereo not drawn)	671
COc1ccc(C(=O)Nc2cccn3nc(C4CC4)nc23)cc1	839
Cc1csc(-c2cc(S(=O)(=O)NCCC3=CCCCC3)cn2CC(=O)N2CCCCC2)n1	1140
O=C(NCc1ccc(F)cc1F)C1CCCN(c2nc3ccsc3c(=O)n2Cc2ccccc2)C1 (stereo not drawn)	938
